Assay results published in the supplement of paper PMC11061612.

Tests used:
Experiment in all cases: combination Emax (second highest fraction inhibited in the dose matrix, 72 h); higher = more inhibition; extreme values may be limits of the assay
A172 (Glioblastoma) = tested on: A172 (Glioblastoma)
Method in brief: (§1)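 After 24 hours at 37°C and 5% CO2 in 1536-well plates, cells in DMEM/F12 or RPMI plus 10% FBS received two-drug dose matrices for 72 hours. Viability came from CellTiter-Glo 2.0 luminescence and was scaled as inhibition, anchored at 0 by vehicle wells and at 1 by blank wells. Combination Emax is taken as the second-highest inhibition in the matrix, and Bliss excess as the observed combination effect less EA + EB − EA·EB, with EA and EB the single-agent effects.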

[1] = tested on: BICR78 (Oral Cavity Carcinoma)
Method in brief: as §1

[2] = tested on: SNG-M (Endometrial Carcinoma)
Method in brief: as §1

CS1 (Chondrosarcoma) = tested on: CS1 (Chondrosarcoma)
Method in brief: as §1

[3] = tested on: NCI-H1688 (Small Cell Lung Carcinoma)
Method in brief: as §1

[4] = tested on: JHH-6 (Hepatocellular Carcinoma)
Method in brief: as §1

HuO9 (Osteosarcoma) = tested on: HuO9 (Osteosarcoma)
Method in brief: as §1

[5] = tested on: EFM-192A (Breast Carcinoma)
Method in brief: as §1

[6] = tested on: GDM-1 (Acute Myeloid Leukemia)
Method in brief: as §1

[7] = tested on: U-118-MG (Low Grade Glioma)
Method in brief: as §1

[8] = tested on: TYK-nu (Ovarian Carcinoma)
Method in brief: as §1

H4 (Low Grade Glioma) = tested on: H4 (Low Grade Glioma)
Method in brief: as §1

[9] = tested on: WSU-DLCL2 (B-Cell Non-Hodgkin's Lymphoma)
Method in brief: as §1

[10] = tested on: 647-V (Bladder Carcinoma)
Method in brief: as §1

[11] = tested on: SK-LMS-1 (Other Solid Carcinomas)
Method in brief: as §1

EW-22 (Ewing's Sarcoma) = tested on: EW-22 (Ewing's Sarcoma)
Method in brief: as §1

[12] = tested on: NOMO-1 (Acute Myeloid Leukemia)
Method in brief: as §1

MCF7 (Breast Carcinoma) = tested on: MCF7 (Breast Carcinoma)
Method in brief: as §1

[13] = tested on: PA-TU-8902 (Pancreatic Carcinoma)
Method in brief: as §1

[14] = tested on: SW48 (Colorectal Carcinoma)
Method in brief: as §1

Row | SMILES | combination Emax (A172 (Glioblastoma)) | combination Emax [1] | combination Emax [2] | combination Emax (CS1 (Chondrosarcoma)) | combination Emax [3] | combination Emax [4] | combination Emax (HuO9 (Osteosarcoma)) | combination Emax [5] | combination Emax [6] | combination Emax [7] | combination Emax [8] | combination Emax (H4 (Low Grade Glioma)) | combination Emax [9] | combination Emax [10] | combination Emax [11] | combination Emax (EW-22 (Ewing's Sarcoma)) | combination Emax [12] | combination Emax (MCF7 (Breast Carcinoma)) | combination Emax [13] | combination Emax [14]
1 | Cc1c2c(nn1C)CSCc1cc(n(C)n1)CSc1cc(c3ccccc3c1)OCCCc1c(C(=O)O)n(C)c3c-2c(Cl)ccc13 [AZD5991] + Cn1cnc2c(F)c(Nc3ccc(Br)cc3Cl)c(C(=O)NOCCO)cc21 [Selumetinib] (first compound max 1 µM, 7x7, partner max 3 µM) | 0.316 | 0.441 | 0.233 | 0.224 | 0.411 | 0.253 | 1 | 0.511 | 0.374 | 0.326 | 0.513 | 0.456 | 1 | 0.91 | 0.22 | 0.566 | 1 | 0.559 | 0.293 | 0.565
2 | CN(C)CCCOc1ccc(-c2ccc3ncc4c(c3c2)n(C2CCOCC2)c(=O)n4C)cn1 [AZD0156] + CCN(CCO)CCCOc1ccc2c(Nc3cc(CC(=O)Nc4cccc(F)c4)[nH]n3)ncnc2c1 [AZD2811] (first compound max 1 µM, 7x7, partner max 1 µM) | 0.499 | 0.182 | 0.0754 | 0.301 | 0.143 | 0.241 | 0.224 | 0.269 | 0.81 | 0.194 | 0.304 | 0.513 | 0.359 | 0.167 | 0.278 | 0.694 | 0.501 | 0.237 | 0.0699 | 0.957
3 | Cc1cc2ncnn2cc1Nc1ncc2c(n1)n(C1CCOCC1)c(=O)n2C [AZD7648] + CCN(CCO)CCCOc1ccc2c(Nc3cc(CC(=O)Nc4cccc(F)c4)[nH]n3)ncnc2c1 [AZD2811] (first compound max 10 µM, 7x7, partner max 1 µM) | 0.611 | 0.354 | 0.281 | 0.343 | 0.201 | 0.339 | 0.369 | 0.345 | 0.859 | 0.317 | 0.422 | 0.711 | 0.476 | 0.262 | 0.409 | 0.698 | 0.606 | 0.55 | 0.309 | 0.963
4 | Cc1cc2ncnn2cc1Nc1ncc2c(n1)n(C1CCOCC1)c(=O)n2C [AZD7648] + C[C@@H]1COCCN1C2=NC(=NC(=C2)C3(CC3)[S@](=N)(=O)C)C4=C5C=CNC5=NC=C4 [AZD6738] (first compound max 10 µM, 7x7, partner max 10 µM) | 0.687 | 0.598 | 0.939 | 0.591 | 0.251 | 0.333 | 0.756 | 0.292 | 0.789 | 0.435 | 0.695 | 0.789 | 0.905 | 0.585 | 0.533 | 0.851 | 0.961 | 0.755 | 0.24 | 0.681
5 | CN(CCO)CC[C@H](CSc1ccccc1)Nc1ccc(S(=O)(=O)NC(=O)c2ccc(N3CCC([C@@H](O)c4ccccc4-c4ccc(Cl)cc4)CC3)cc2)cc1S(=O)(=O)C(F)(F)F [AZD4320] + C[C@@H]1COCCN1C2=NC(=NC(=C2)C3(CC3)[S@](=N)(=O)C)C4=C5C=CNC5=NC=C4 [AZD6738] (first compound max 1 µM, 7x7, partner max 10 µM) | 0.731 | 0.774 | 0.973 | 0.83 | 0.728 | 0.443 | 0.956 | 0.349 | 1 | 0.878 | 0.803 | 0.9 | 0.989 | 0.816 | 0.866 | 1 | 0.972 | 0.656 | 0.341 | 0.954
6 | CC(=O)Nc1cccc(-n2c(=O)n(C3CC3)c(=O)c3c(Nc4ccc(I)cc4F)n(C)c(=O)c(C)c32)c1 [Trametinib] + Cc1nc(-c2cn3c(n2)-c2ccc(-c4cnn(C(C)(C)C(N)=O)c4)cc2OCC3)n(C(C)C)n1 [Taselisib] (first compound max 1 µM, 7x7, partner max 10 µM) | 0.761 | 0.726 | 0.871 | 0.878 | 0.628 | 0.636 | 0.8 | 0.72 | 0.88 | 0.757 | 0.737 | 0.795 | 0.936 | 0.456 | 0.974 | 0.722 | 0.98 | 0.732 | 0.724 | 0.95
7 | CCN(CCO)CCCOc1ccc2c(Nc3cc(CC(=O)Nc4cccc(F)c4)[nH]n3)ncnc2c1 [AZD2811] + C=CCn1c(=O)c2cnc(Nc3ccc(N4CCN(C)CC4)cc3)nc2n1-c1cccc(C(C)(C)O)n1 [AZD1775] (first compound max 1 µM, partner max 1 µM) | 0.603 | 0.264 | 0.482 | 0.45 | 0.568 | 0.223 | 0.686 | 0.239 | 0.857 | 0.333 | 0.708 | 0.782 | 0.937 | 0.491 | 0.436 | 0.678 | 0.932 | 0.303 | 0.222 | 0.964
8 | CCN(CCO)CCCOc1ccc2c(Nc3cc(CC(=O)Nc4cccc(F)c4)[nH]n3)ncnc2c1 [AZD2811] + C[C@@H]1COCCN1C2=NC(=NC(=C2)C3(CC3)[S@](=N)(=O)C)C4=C5C=CNC5=NC=C4 [AZD6738] (first compound max 1 µM, 7x7, partner max 10 µM) | 0.655 | 0.637 | 0.932 | 0.632 | 0.271 | 0.266 | 0.815 | 0.233 | 0.823 | 0.52 | 0.717 | 0.808 | 0.822 | 0.524 | 0.551 | 0.894 | 0.922 | 0.58 | 0.216 | 0.975
9 | NC1(C(=O)N[C@@H](CCO)c2ccc(Cl)cc2)CCN(c2ncnc3[nH]ccc23)CC1 [Capivasertib] + CC(=O)c1c(C)c2cnc(Nc3ccc(N4CCNCC4)cn3)nc2n(C2CCCC2)c1=O [Palbociclib] (first compound max 10 µM, 7x7, partner max 10 µM) | 0.671 | 0.424 | 0.501 | 0.442 | 0.224 | 0.501 | 0.541 | 0.432 | 0.623 | 0.676 | 0.505 | 0.751 | 1 | 0.277 | 0.433 | 0.575 | 0.517 | 0.676 | 0.409 | 0.63
10 | CC1(C)CCC(CN2CCN(c3ccc(C(=O)NS(=O)(=O)c4ccc(NCC5CCOCC5)c([N+](=O)[O-])c4)c(Oc4cnc5[nH]ccc5c4)c3)CC2)=C(c2ccc(Cl)cc2)C1 [Venetoclax] + C=CCn1c(=O)c2cnc(Nc3ccc(N4CCN(C)CC4)cc3)nc2n1-c1cccc(C(C)(C)O)n1 [AZD1775] (first compound max 1 µM, partner max 1 µM) | 0.315 | 0.553 | 0.729 | 0.682 | 0.666 | 0.296 | 0.759 | 0.327 | 1 | 0.357 | 0.681 | 0.85 | 0.995 | 0.612 | 0.61 | 0.924 | 0.99 | 0.452 | 0.286 | 0.809
11 | COc1nnc2ccc(N3CCC(c4ccc(OCCN5CCN(C)C(=O)[C@H]5C)cc4)CC3)nn12 [AZD5153] + C=CCn1c(=O)c2cnc(Nc3ccc(N4CCN(C)CC4)cc3)nc2n1-c1cccc(C(C)(C)O)n1 [AZD1775] (first compound max 1 µM, partner max 1 µM) | 0.543 | 0.482 | 0.642 | 0.553 | 0.707 | 0.53 | 0.919 | 0.391 | 0.961 | 0.467 | 0.772 | 0.884 | 0.996 | 0.637 | 0.592 | 0.781 | 0.983 | 0.684 | 0.502 | 0.66
12 | Cc1c2c(nn1C)CSCc1cc(n(C)n1)CSc1cc(c3ccccc3c1)OCCCc1c(C(=O)O)n(C)c3c-2c(Cl)ccc13 [AZD5991] + C[C@@H](Nc1cc(F)cc(F)c1)c1cc(C(=O)N(C)C)cc2c(=O)cc(N3CCOCC3)oc12 [AZD8186] (first compound max 1 µM, 7x7, partner max 3 µM) | 0.304 | 0.189 | 0.311 | 0.235 | 0.339 | 0.236 | 1 | 0.703 | 0.767 | 0.45 | 0.254 | 0.656 | 1 | 0.802 | 0.453 | 0.491 | 0.905 | 0.71 | 0.173 | 0.387
13 | CC1(C)CCC(CN2CCN(c3ccc(C(=O)NS(=O)(=O)c4ccc(NCC5CCOCC5)c([N+](=O)[O-])c4)c(Oc4cnc5[nH]ccc5c4)c3)CC2)=C(c2ccc(Cl)cc2)C1 [Venetoclax] + CN(C)CCCOc1ccc(-c2ccc3ncc4c(c3c2)n(C2CCOCC2)c(=O)n4C)cn1 [AZD0156] (first compound max 1 µM, 7x7, partner max 1 µM) | 0.238 | 0.297 | 0.127 | 0.56 | 0.195 | 0.212 | 0.343 | 0.25 | 0.679 | 0.217 | 0.174 | 0.232 | 0.33 | 0.196 | 0.5 | 0.866 | 0.912 | 0.242 | 0.209 | 0.607
